In paper PMC10771296, “Plectasin: from evolution to truncation, expression, and better druggability” (Frontiers in Microbiology, 2023):
≈ marks a conversion by molar mass, not a printed value. Entries after “also recorded” stand apart in the source; their conditions may differ. Where a SMILES comes first, the peptide text is derived from it. Bridges are numbered along the chain shown (N, C = ends).

Legend:
S. aureus ATCC43300 [1] = assay: Salt (metal ion) stability read out as MIC; format: cell-based, Staphylococcus aureus; settings: triplicates
Method: (§1) The stability of Ple-AB was assessed based on its antibacterial activity against S. aureus ATCC43300. Temperature stability was determined by incubation at 20, 40, 60, 80, and 100°C for 1 h ([Li et al., 2020]). The pH stability was determined by incubation in buffers with a pH of 2, 4, 6, 8, and 10 for 4 h ([Yang et al., 2017]). The peptides were incubated with different concentrations of metal ions, serum, artificial gastric fluid, and simulated intestinal fluid to assess their stability in the blood and intestines ([Lyu et al., 2019]). All the treatments were performed in triplicates.

E. coli O157 = assay: MIC, micro broth dilution; format: cell-based; settings: 1 × 10^5 CFU/mL, repeated thrice
Method: (§2) The minimum inhibitory concentration (MIC) of the peptides was assayed using the micro broth dilution method, which is an important indicator of the antibacterial activity of the AMPs ([Liu et al., 2021]). […] The MIC was defined as the lowest concentration of ones at which no visible bacterial growth was observed. All the assays were repeated thrice.

S. enteriditis CVCC3377 = assay: MIC, micro broth dilution; format: cell-based; settings: 1 × 10^5 CFU/mL, repeated thrice
Method: as §2

P. aeruginsoa CICC21630 = assay: MIC, micro broth dilution; format: cell-based; settings: 1 × 10^5 CFU/mL, repeated thrice
Method: as §2

Shigella CMCC3926 = assay: MIC, micro broth dilution; format: cell-based; settings: 1 × 10^5 CFU/mL, repeated thrice
Method: as §2

E. coli ATCC25922 = assay: MIC, micro broth dilution; format: cell-based; settings: 1 × 10^5 CFU/mL, repeated thrice
Method: as §2

S. aureus ATCC43300 [2] = assay: Serum stability read out as MIC; format: in vitro ADME, Staphylococcus aureus; settings: 1–8 h, triplicates
Method: as §1

ICR mice = assay: In vivo safety: serum biochemical indices; settings: 10 mg/kg i.p. for six consecutive days
Method: Eight 6-week-old ICR mice were randomly divided into two groups and injected intraperitoneally with Ple-AB (10 mg/kg, body weight) and saline for six consecutive days. […] They were weighed daily, and blood was collected on the 7th day for hematological and biochemical analyses. Simultaneously, the heart, liver, spleen, lungs, and kidneys were collected for tissue fixation and hematoxylin–eosin (HE) staining to observe any pathological changes ([Shishkina et al., 2023]).

S. aureus ATCC 43300 = assay: Inhibition zone screening of expression supernatants; format: cell-based, Staphylococcus aureus; settings: induced supernatant of P. pastoris X-33 transformants, 48-well plates, 120 h
Description: The recombinant expression vector was constructed by ligating the designed and optimized sequence to the pPICZαA inducible expression vector, relying on the preference of the codon of P. pastoris. The linearized plasmid was transferred into P. pastoris X-33 for expression and the resulting product was verified for activity using an inhibition zone assay (against S. aureus ATCC 43300) before the active peptide was expressed at a high density in a 5-L fermenter ([Mao et al., 2015]). The supernatant was purified using the AKTA Express system. The fermentation supernatant was collected by centrifugation (5,000 rmp, 30 min), filtered with micro-filtration membranes ([…]). According to the isoelectric point of the target product, the corresponding A (50 mM sodium phosphate buffer, pH 6.7) and B (50 mM sodium phosphate buffer, 600 mM NaCl, pH 6.7) buffers were configured and purified by HiPrep SP FF cation exchange column (GE Healthcare). The protein samples were eluted by increasing the NaCl concentration in a stepwise manner, and the corresponding elution peak was collected. The purified product was verified using tricine-sodium dodecyl sulfate-polyacrylamide gel electrophoresis (Tricine-SDS-PAGE) and matrix-assisted laser desorption/ionization–time-of-flight mass spectrometry (MALDITOF MS) ([Zhang et al., 2014]).
A total of 15 recombinant plasmids were constructed. […]

[3] = tested on: murine macrophage RAW 264.7; assay: Cytotoxicity, MTT assay; format: cell-based, mouse
Method: The cytotoxicity of Ple-AB toward the murine macrophage RAW 264.7 (Peking Union Medical College) was tested using the MTT assay ([Wang et al., 2018]). Cells (2.5 × 10^4 CFU/mL) were incubated at 37°C for 24 h, and thereafter Ple-AB at a concentration of 2–256 μg/mL was added for 24 h. The supernatant was washed twice, […] 3-(4,5-dimethylthiazol-2-yl)-2,5-diphenyltetrazolium bromide (MTT) solution was added, and the mixture was incubated for 4 h. The absorbance of each well was measured at 570 nm using a microplate reader. PBS (Acontrol) was used as the control. Survival rate (%) = (A/Acontrol) × 100 was calculated.

With `CC[C@H](C)[C@@H]1NC(=O)[C@H](CO)NC(=O)[C@H](CCCCN)NC(=O)[C@@H]2CSSC[C@@H](C(=O)N[C@@H](Cc3ccc(O)cc3)C(=O)O)NC(=O)[C@H](CCCCN)NC(=O)[C@@H]3CSSC[C@H](NC(=O)[C@H](CCC(N)=O)NC(=O)[C@H](CCSC)NC(=O)[C@H](CCC(=O)O)NC(=O)[C@H](CC(=O)O)NC(=O)[C@H](Cc4c[nH]c5ccccc45)NC(=O)[C@@H]4CCCN4C(=O)[C@@H](NC(=O)CNC(=O)[C@H](Cc4ccccc4)NC(=O)CN)CSSC[C@H](NC(=O)[C@H](Cc4ccc(O)cc4)NC(=O)CNC(=O)CNC(=O)[C@H](CCCCN)NC(=O)[C@H](Cc4ccc(O)cc4)NC(=O)CNC(=O)[C@H](CCCCN)NC1=O)C(=O)N[C@@H](C)C(=O)N[C@@H](CCCCN)C(=O)NCC(=O)NCC(=O)N[C@@H](Cc1ccccc1)C(=O)N[C@@H](C(C)C)C(=O)N3)C(=O)N[C@@H](Cc1c[nH]cn1)C(=O)N[C@@H](CC(N)=O)C(=O)N[C@@H](Cc1c[nH]cn1)C(=O)N2` [Ple-AB] (H-GFGCPWDEMQCHNHCKSIKGYKGGYCAKGGFVCKCY-OH; disulfide 4-26, 11-33, 15-35; N-terminus and C-terminus assumed) the MIC with salts (S. aureus ATCC43300 [1]; Ca^2+ (2.5 mM)) was 16 µg/mL, the MIC with salts (S. aureus ATCC43300 [1]; Fe^3+ (4 μM)) was 16 µg/mL and the MIC with salts (S. aureus ATCC43300 [1]; K^+ (4.5 mM)) was 16 µg/mL. It also gave an MIC with salts (S. aureus ATCC43300 [1]; Mg^2+ (1 mM)) of 16 µg/mL, an MIC with salts (S. aureus ATCC43300 [1]; NH4^+ (6 μM)) of 16 µg/mL and an MIC with salts (S. aureus ATCC43300 [1]; Na^+ (150 mM)) of 16 µg/mL. The MIC with salts (S. aureus ATCC43300 [1]; Zn^2+ (8 μM)) was 16 µg/mL, the MIC (E. coli O157) was over 128 µg/mL and the MIC (S. enteriditis CVCC3377) was over 128 µg/mL. For the same compound, the MIC (P. aeruginsoa CICC21630) was over 128 µg/mL, the MIC (Shigella CMCC3926) was over 128 µg/mL and the MIC (E. coli ATCC25922) was over 128 µg/mL. For the same compound, the MIC after serum (S. aureus ATCC43300 [2]; Serum (25%)) was 16 µg/mL (≈ 4 µM), the MIC after serum (S. aureus ATCC43300 [2]; Serum (50%)) was 16 µg/mL (≈ 4 µM) and the “Serum biochemical indices versus control group” value (ICR mice; blood on 7th day) was “not significantly different”. The ALT (ICR mice; serum on 7th day) was 49.07 ± 6.21 IU/L, the AST (ICR mice; serum on 7th day) was 25.85 ± 2.33 IU/L and the Albumin (ICR mice; serum on 7th day) was 35.59 ± 4.58 g/L. The “Ca^2+” value (ICR mice; serum on 7th day) was 1.38 ± 0.06 mmol/L, the Creatinine (ICR mice; serum on 7th day) was 83.13 ± 4.57 µmol/L and the Globulin (ICR mice; serum on 7th day) was 18.82 ± 0.25 g/L. For the same compound, the Glucose (ICR mice; serum on 7th day) was 1.59 ± 0.15 mmol/L, the Phosphorous (ICR mice; serum on 7th day) was 3.33 ± 0.20 mmol/L and the Total protein (ICR mice; serum on 7th day) was 54.41 ± 4.56 g/L. The “Urea Nitrogen” value (ICR mice; serum on 7th day) was 11.6 ± 0.8 mmol/L, the “Antibacterial activity in inhibition circle screening” value (S. aureus ATCC 43300) was “better antibacterial activity; also recorded: normal or higher activity” and the Cytotoxicity ([3]; RAW264.7, 256 μg/mL) was under 1%. For the same compound, the Cell survival rate ([3]; RAW264.7, 2–256 μg/mL, 24 h, MTT, A570) was “above 80%”.
